Laboratory results: patent publication US6344474B1, “Use of central cannabinoid receptor antagonists for regulating appetence” (Sanofi-Synthelabo, priority 1997, dated 2002)

How the values were obtained:
[1] = test system: Male Sprague-Dawley rats; assay: Effect of SR 141716 A on the intake of a sucrose solution in rats; assay type: in vivo, rat; settings: for Consumption of sucrose solution in g, 1 hour / Consumption of sucrose solution in g, 2 hours / Consumption of sucrose solution in g, 3 hours / Consumption of sucrose solution in g, 4 hours: 5% sucrose solution; for Consumption of sucrose solution in g, 1 hour: T0+1 hour; for Consumption of sucrose solution in g, 2 hours: T0+2 hours; for Consumption of sucrose solution in g, 3 hours: T0+3 hours; for Consumption of sucrose solution in g, 4 hours: T0+4 hours
Method: TEST No. 1: Effect of SR 141716 A on the intake of a sucrose solution in rats
The experiment is performed according to W. C. Lynch et al., Physiol. Behav., 1993, 54, 877-880.
Male Sprague-Dawley rats weighing 190 to 210 g are under a normal light cycle (from 7 am to 7 pm) and receive water and food ad libitum.
For 6 days, between 11 am and 3 pm, the food and the water bottles are withdrawn and the rats are given a 5% sucrose solution to drink.
Rats drinking less than 3 g of sucrose solution are eliminated.
On the seventh day the test is carried out according to the following procedure:
9 am: withdrawal of food,
10 am: oral administration of SR 141716 A,
11 am=T0: introduction of bottles containing a weighed sucrose solution , T0+1 hour, T0+2 hours, T0+3 hours, T0+4 hours: measurement of the sucrose consumption by weighing of the bottles.

[2] = test system: Male C 57 BL 6 mice; assay: Effect of SR 141716 A on the consumption of an alcohol solution in mice; assay type: in vivo, mouse; settings: 6 hours; for Amount of alcohol consumed in g on D4: 10% alcohol solution
Method: TEST No. 2: Effect of SR 141716 A on the consumption of an alcohol solution in mice
Male C 57 BL 6 mice (Iffa-Credo) are isolated on the day of their arrival in an animal housing under a reverse cycle (night from 10 am to 10 pm) with 2 bottles filled with water. After 1 week, one of the bottles of water is replaced with a bottle filled with a 10% alcohol solution for 6 hours of the test. Each day, 30 minutes before the bottle of alcohol is introduced, the mice are treated subcutaneously with SR 141716 A. The amounts of alcohol and water consumed are measured after 6 hours. The test is repeated for 4 days.

Cc1c(C(=O)NN2CCCCC2)nn(-c2ccc(Cl)cc2Cl)c1-c1ccc(Cl)cc1 [SR 141716 A, N-piperidino-5-(4-chlorophenyl)-1-(2,4-dichlorophenyl)-4-methylpyrazole-3-carboxamide]
Consumption of sucrose solution in g, 1 hour ([1]; 0.3 mg/kg po): 5.18 g
Consumption of sucrose solution in g, 2 hours ([1]; 0.3 mg/kg po): 9.18 g
Consumption of sucrose solution in g, 3 hours ([1]; 0.3 mg/kg po): 12.49 g
Consumption of sucrose solution in g, 4 hours ([1]; 0.3 mg/kg po): 16.10 g
Consumption of sucrose solution in g, 1 hour ([1]; 1 mg/kg po): 3.27 ± g
Consumption of sucrose solution in g, 2 hours ([1]; 1 mg/kg po): 3.61 ± g
Consumption of sucrose solution in g, 3 hours ([1]; 1 mg/kg po): 5.65 ± g
Consumption of sucrose solution in g, 4 hours ([1]; 1 mg/kg po): 7.43 ± g
Consumption of sucrose solution in g, 1 hour ([1]; 3 mg/kg po): 2.95 ± g
Consumption of sucrose solution in g, 2 hours ([1]; 3 mg/kg po): 5.41 ± g
Consumption of sucrose solution in g, 3 hours ([1]; 3 mg/kg po): 6.96 ± g
Consumption of sucrose solution in g, 4 hours ([1]; 3 mg/kg po): 8.58 ± g
Dose at or above which consumption of aqueous sugar solution is very considerably reduced ([1]; oral administration): ≥ 0.3 mg/kg
Amount of alcohol consumed in g on D4 ([2]; 0.1 mg/kg sc): 1.4 ± 0.2 g
Amount of water consumed ([2]; 0.1 mg/kg sc): 1.1 ± 0.3 g
Amount of alcohol consumed in g on D4 ([2]; 0.3 mg/kg sc): 1.3 ± 0.2 g
Amount of water consumed ([2]; 0.3 mg/kg sc): 1.1 ± 0.3 g
Amount of alcohol consumed in g on D4 ([2]; 1 mg/kg sc): 1.1 ± 0.2 g
Amount of water consumed ([2]; 1 mg/kg sc): 1.3 ± 0.1 g
Amount of alcohol consumed in g on D4 ([2]; 3 mg/kg sc, 3 mg/kg): 1.0 ± 0.2 g
Amount of water consumed ([2]; 3 mg/kg sc, 3 mg/kg): 1.6 ± 0.3 g
